{
  "source": "paper PMC9583845",
  "about": "“Characterization of the chicken melanocortin 5 receptor and its potential role in regulating hepatic glucolipid metabolism” (Frontiers in Physiology, 2022)",
  "key": {"[1]": {"target": "chicken MC5R + MRAP2 (Gallus gallus, UniProt O73671)", "sequence (O73671 1-325)": "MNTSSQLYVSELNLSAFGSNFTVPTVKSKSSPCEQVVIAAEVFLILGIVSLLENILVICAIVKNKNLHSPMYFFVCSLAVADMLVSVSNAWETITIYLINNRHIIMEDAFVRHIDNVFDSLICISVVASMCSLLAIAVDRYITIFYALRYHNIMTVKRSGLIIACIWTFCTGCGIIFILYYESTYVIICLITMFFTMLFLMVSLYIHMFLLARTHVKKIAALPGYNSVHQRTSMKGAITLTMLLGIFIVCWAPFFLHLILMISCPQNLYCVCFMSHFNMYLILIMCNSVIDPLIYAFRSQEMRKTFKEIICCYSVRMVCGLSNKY", "sequence (A0A140B2F4 1-206 partner)": "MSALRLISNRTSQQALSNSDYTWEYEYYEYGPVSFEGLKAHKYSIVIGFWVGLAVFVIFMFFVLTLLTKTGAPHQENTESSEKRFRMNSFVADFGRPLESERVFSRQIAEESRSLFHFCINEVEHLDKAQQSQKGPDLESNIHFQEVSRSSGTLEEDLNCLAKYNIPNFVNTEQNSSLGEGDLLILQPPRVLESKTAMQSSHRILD", "assay": "pGL3-CRE-luciferase reporter assay, CHO cells co-expressing MC5R and cMRAP2", "assay_type": "cell-based", "settings": "for effect of MRAP2 co-expression on sensitivity of MC5R: vs MC5R expressed alone", "procedure": "The expression plasmids encoding MC5R, MRAP1 and MRAP2 were established by cloning their entire open reading frame (ORF) into the pcDNA3.1 (+) expression vector (Invitrogen).\nThe cells were then transfected with a mixture containing 700 ng pGL3-CRE-Luciferase reporter construct, 200 ng of receptor expression plasmid (or empty pcDNA3.1 vector as a negative control), 20 ng of pRL-TK construct (containing a Renilla luciferase gene, used as an internal control), and 2 μl jetPRIME transfection reagent (Polyplus Transfection, Illkirch, France) in 200 μL buffer. […] After removal of the medium from the 96-well plate, the cells were treated with 100 μl ligand-containing medium (or ligand-free medium) for 6 h. Finally, CHO cells were lysed with 1 × passive lysis buffer for luciferase assay (Promega) and the luciferase activity of the cell lysate was measured by a Multimode Microplate Reader (TriStar LB941, EG&G Berthold, Germany) according to the manufacturer’s instruction.\nAll statistical analysis was performed using GraphPad Prism 9 (Graph Pad Software Inc., San Diego, CA). The dose-response curves were constructed using nonlinear regression models. Student’s test was used to compare two groups, for more than two groups one-way ANOVA was performed followed by Dunnett’s test. To validate our results, all in-vitro experiments were repeated three times, and representative data are reported."}, "[2]": {"tested_on": "primary chicken hepatocytes", "assay": "Glucose production from primary cultured chicken hepatocytes", "assay_type": "cell-based", "settings": "for glucose production (in words): primary chicken hepatocytes, 100 nM for 30 or 60 min, or 0.1–100 nM for 60 min, gluconeogenic substrates 20 mM lactate, 2 mM pyruvate, four independent experiments, Figures 7A,B", "procedure": "(§1) To evaluate the effect of ACTH1-39 on chicken liver, the chicken hepatocytes were prepared and maintained as a monolayer culture. Briefly, one-month-old male chicken hepatocytes were isolated by perfusion of a liver with Ca^2+-free KRB buffer to remove blood cells, and being digested with 0.25% collagenase-I for 10 min. Hepatocytes were obtained following filtering and washing using M199 medium. Then the hepatocytes were plated in a Corning CellBIND 48-well microplate (Corning, NY, cat. no.3338) with M199 medium containing 100 U/ml penicillin and […] streptomycin (Gibco), 5 μg/ml bovine insulin (Sigma), and 5% FBS at 37°C in a 5% CO2 atmosphere. To adhere to the wall, the cells were incubated on the 48-well plate for 4 h.\nGlucose production from primary cultured chicken hepatocytes was measured as previously described ([Collins et al., 2006]). Briefly, cells were washed three times with warm phosphate-buffered saline (PBS) to remove glucose, followed by treatment with 100 nM (or different concentration gradients) chicken ATCH1-39 for 30 min or 60 min in glucose-free medium containing gluconeogenic substrates (20 mM sodium lactate and 2 mM sodium pyruvate). Glucose concentration was determined with a glucose assay kit (Applygen, Beijing, China, catalog no. E1011). Briefly, the 5 µl medium was added into 195 µl reagent and incubated for 20 min at 37°C. Absorbance in 550 nm was measured in a standard glucose solution."}, "[3]": {"tested_on": "primary chicken hepatocytes", "assay": "Lipid quantification by Oil Red O staining, primary cultured chicken hepatocytes", "assay_type": "cell-based", "settings": "24 h; OD at 540 nm of isopropanol extract; N = 6; Figures 7C–D", "procedure": "as §1\nFor lipid quantification by Oil Red O staining, after treatment with ACTH1-39 for 24 h, primary cultured chicken hepatocytes were washed with PBS and then fixed with 4% paraformaldehyde for 30 min. After PBS washing, the Oil Red O working solution was added to stain for 30 min. The stained lipids were then visualized by light microscopy after washing in PBS. To quantify the lipid content, the Oil Red O stained in the cells was extracted with isopropanol by measuring the OD value at 540 nm."}, "[4]": {"tested_on": "primary chicken hepatocytes", "assay": "Triglyceride content, primary chicken hepatocytes", "assay_type": "cell-based", "settings": "24 h, normalized to protein, Figure 7E", "procedure": "as §1\nFor measurement of triglyceride content, after treated with ACTH1-39 for 24 h, hepatocytes were harvested and triglyceride (TG) content was analyzed using a commercial triglyceride content assay kit (Applygen, Beijing, China, catalog no. E1013). Results were normalized to the protein content of each sample, as determined using a BCA assay kit (Beyotime Institute of Biotechnology, China, catalog no. P0010)."}, "[5]": {"tested_on": "THRSPA mRNA, primary chicken hepatocytes", "assay": "THRSPA mRNA in primary chicken hepatocytes, RT-qPCR", "assay_type": "cell-based", "settings": "6 h, N = 4, Figures 8D-F", "procedure": "as §1\n(§2) For quantitative real-time PCR, primary cultured chicken hepatocytes were treated with various concentrations of ACTH1-39 (or other composition) at 37°C for 6 h. The relative amount of mRNA was calculated using the comparative Ct method. Chicken β-actin gene was used as the reference gene. Amplification of specific transcripts was confirmed by analyzing the melting curve profile performed at the end of each run and by determining the size of the PCR products using agarose electrophoresis and ethidium bromide staining."}, "[6]": {"tested_on": "ACACA mRNA, primary chicken hepatocytes", "assay": "ACACA mRNA in primary chicken hepatocytes, RT-qPCR", "assay_type": "cell-based", "settings": "0.1–100 nM, 6 h, N = 4, Figure 8G, listed as not decreased", "procedure": "as §1, §2"}, "[7]": {"tested_on": "SCD mRNA, primary chicken hepatocytes", "assay": "SCD mRNA in primary chicken hepatocytes, RT-qPCR", "assay_type": "cell-based", "settings": "0.1–100 nM, 6 h, N = 4, Figure 8I, listed as not decreased", "procedure": "as §1, §2"}, "[8]": {"tested_on": "chicken MC1R", "set-up": "method as in Ling et al., 2003; Ling et al., 2004; Mundy, 2005", "settings": "ref Ling et al., 2003, 2004, Mundy, 2005; cited from earlier work"}, "[9]": {"tested_on": "chicken MC4R", "set-up": "method as in Zhang et al., 2017; Thomas et al., 2018", "settings": "ref Zhang et al., 2017; Thomas et al., 2018; cited from earlier work"}, "[10]": {"tested_on": "7-day chickens", "settings": "continuous administration through mini-osmotic pumps, ref Puvadolpirod and Thaxton, 2000a; cited from earlier work", "from_the_text": "Early studies have tested the effect of continuous ACTH administration in 7-day chickens ([Puvadolpirod and Thaxton, 2000a]; [Puvadolpirod and Thaxton, 2000b]; [Puvadolpirod and Thaxton, 2000c]; [Puvadolpirod and Thaxton, 2000d]; [Thaxton and Puvadolpirod, 2000]). […] A series of effects of ACT ..."}},
  "data": [
    {"substance": "H-SYSMEHFRWGKPVGRKRRPIKVYPNGVDEESAESYPMEF-OH [ACTH1-39]", "values": [
      {"measurement": "EC50", "setting": "[1]; Table 1 / Figure 3, co-expressed with cMRAP2, 6 h, pGL3-CRE-luciferase, mean ± SEM of at least three independent experiments (figure: four replicates), ^a: significantly different from the parameter of MC5R, p < 0.01", "result": "3.19 ± 1.09", "unit": "nM"},
      {"measurement": "effect of MRAP2 co-expression on sensitivity of MC5R", "setting": "[1]; α-MSH p < 0.01", "result": "did not affect the sensitivity of cMC5R to ACTH1-39"},
      {"measurement": "effect of MRAP2 co-expression on sensitivity of MC5R", "setting": "[1]; α-MSH p < 0.01, listed as ACTH", "result": "no effect on the sensitivity of chicken MC5R for ACTH"},
      {"measurement": "time from which glucose production significantly increased", "setting": "[2]; 100 nM ACTH, 30 and 60 min, Figure 7A", "result": "≥ 0.5", "unit": "h"},
      {"measurement": "dose from which glucose production significantly increased", "setting": "[2]; 0.1–100 nM ACTH, 60 min, Figure 7B", "result": "≥ 1", "unit": "nM"},
      {"measurement": "glucose production (in words)", "setting": "[2]", "result": "enhanced glucose production"},
      {"measurement": "glucose production (in words)", "setting": "[2]; listed as ACTH", "result": "induction of gluconeogenesis"},
      {"measurement": "glucose production (in words)", "setting": "[2]; listed as cACTH1-39", "result": "significantly increased the level of glucose production"},
      {"measurement": "lipid contents (Oil Red O staining)", "setting": "[3]", "result": "lipid contents were lower in the ACTH-treat group in a dose-dependent manner"},
      {"measurement": "triglyceride (TG) contents", "setting": "[4]", "result": "decreased triglyceride contents"},
      {"measurement": "triglyceride (TG) contents", "setting": "[4]; listed as ACTH", "result": "prominently decreased triglyceride (TG) contents"},
      {"measurement": "THRSPA mRNA expression", "setting": "[5]", "result": "dose-dependently decreased"},
      {"measurement": "ACACA mRNA expression", "setting": "[6]", "result": "instead of ACACA, FASN and SCD"},
      {"measurement": "SCD mRNA expression", "setting": "[7]", "result": "instead of ACACA, FASN and SCD"},
      {"measurement": "MC1R response", "setting": "[8]", "result": "promoting intracellular cAMP accumulation"},
      {"measurement": "activation of chicken MC4R", "setting": "[9]", "result": "activated by both α-MSH and ACTH"},
      {"measurement": "plasma corticosterone", "setting": "[10]", "result": "a fast rise in plasma corticosterone"},
      {"measurement": "plasma glucose and relative liver weight", "setting": "[10]", "result": "an increase in plasma glucose and relative liver weight"}
    ]}
  ]
}
